Reference: the Kinase Knowledgebase extract (Sharma et al. 2016)

Target: MAPK14 (human) (UniProt Q16539)
Assay: TNF-alpha Release Inhibition (LPS-stimulated PBMCs)
Conditions: pbmc

Sequence of MAPK14 (human) (Q16539 whole entry, looked up): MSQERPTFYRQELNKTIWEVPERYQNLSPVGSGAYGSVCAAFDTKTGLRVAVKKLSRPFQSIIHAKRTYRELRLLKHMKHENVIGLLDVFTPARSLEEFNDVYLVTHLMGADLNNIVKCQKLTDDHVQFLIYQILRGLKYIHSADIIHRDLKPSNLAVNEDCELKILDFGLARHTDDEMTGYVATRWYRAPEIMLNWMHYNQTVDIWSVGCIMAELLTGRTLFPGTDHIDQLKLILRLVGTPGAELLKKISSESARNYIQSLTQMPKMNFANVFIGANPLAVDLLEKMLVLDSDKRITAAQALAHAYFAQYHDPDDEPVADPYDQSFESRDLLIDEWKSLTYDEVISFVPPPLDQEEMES

## COc1ccc2c(-c3ccncc3)c(-c3cccc(Cl)c3)[nH]c2c1
  IC50: 125 nM

## Nc1ccc2c(-c3ccncc3)c(-c3cccc(Cl)c3)[nH]c2n1
  IC50: 9 nM

## COc1ccc2c(-c3ccncc3)c(-c3ccc(I)cc3)[nH]c2c1
  IC50: 6500 nM

## Oc1ccc2c(-c3ccncc3)c(-c3ccc(F)cc3)[nH]c2n1
  IC50: > 10000 nM

## Nc1ccc2c(-c3ccncc3)c(-c3ccc(F)c(F)c3)[nH]c2n1
  IC50: 30 nM

## Nc1ccc2c(-c3ccncc3)c(-c3ccc(F)cc3)[nH]c2c1
  IC50: 200 nM

## COc1ccc2c(-c3ccncc3)c(-c3cccc(F)c3)[nH]c2c1
  IC50: 300 nM

## Fc1ccc(-c2[nH]c3ncccc3c2-c2ccncc2)cc1
  IC50: 400 nM

## CCCCOc1cc(OC)nc2[nH]c(-c3ccc(F)cc3)c(-c3ccncc3)c12
  IC50: 6 nM

## COc1ccc2c(-c3ccncc3)c(-c3ccc(F)cc3)[nH]c2n1
  IC50: 200 nM

## Fc1ccc(-c2[nH]c3ccccc3c2-c2ccncc2)cc1
  IC50: > 10000 nM

## CC(=O)Nc1ccc2c(-c3ccncc3)c(-c3ccc(F)cc3)[nH]c2n1
  IC50: 100 nM

## Nc1cc(OCc2ccc(F)cc2)c2c(-c3ccncc3)c(-c3ccc(F)cc3)[nH]c2n1
  IC50: 2 nM

## COc1ccc2c(-c3ccncc3)c(-c3ccc(F)cc3)[nH]c2c1
  IC50: 400 nM

## Nc1ccc2c(-c3ccncc3)c(-c3cccc(I)c3)[nH]c2n1
  IC50: 40 nM

## CCOc1ccc(-c2[nH]c3nc(N)ccc3c2-c2ccncc2)cc1Cl
  IC50: 60 nM

## CN(C)c1ccc2c(-c3ccncc3)c(-c3ccc(F)cc3)[nH]c2n1
  IC50: 400 nM

## Fc1ccc(-c2[nH]c3nc(NCc4ccccc4)ccc3c2-c2ccncc2)cc1
  IC50: 300 nM

## CCCCOc1cc(O)nc2[nH]c(-c3ccc(F)cc3)c(-c3ccncc3)c12
  IC50: 15 nM

## COc1ccc2c(-c3ccncc3)c(-c3cccc(I)c3)[nH]c2c1
  IC50: 100 nM
